Measured values reported in ChEMBL document CHEMBL1128376, “Carbethoxylating agents as inhibitors of aldehyde dehydrogenase” (J Med Chem, 1995).

Tested on: aldehyde dehydrogenase (Saccharomyces cerevisiae); call rule not given here
Assay: In vitro inhibition against yeast aldehyde dehydrogenase; IA means In active

CCOC=O [ETHOXYCARBONYL GROUP]
IC50: Not Active
